In ChEMBL document CHEMBL1201862, “PubChem BioAssay data set” (2004):
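The compound was tested at five concentrations on cells cultured in 96-well plates, with a 48-hour exposure period. Abbreviation: GI50, concentration required for 50% inhibition of growth.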 The source made the active and inactive calls. Cut-off read from the data, not from the text of the source: active = GI50 up to about 1.1 µM and inactive = higher.

How the values were obtained:
Assay in all cases: NCI tumour cell line growth inhibition, 48 h
786-0 = tested on: 786-0
A498 = tested on: A498
A549 = tested on: A549
ACHN = tested on: ACHN
CAKI-1 = tested on: CAKI-1
CCRF-CEM = tested on: CCRF-CEM
COLO 205 = tested on: COLO 205
DLD-1 = tested on: DLD-1
DMS-114 = tested on: DMS-114
DMS-273 = tested on: DMS-273
HCC 2998 = tested on: HCC 2998
HCT-116 = tested on: HCT-116
HCT-15 = tested on: HCT-15
HL-60 = tested on: HL-60
HOP-18 = tested on: HOP-18
HOP-62 = tested on: HOP-62
HOP-92 = tested on: HOP-92
HT-29 = tested on: HT-29
IGROV-1 = tested on: IGROV-1
K562 = tested on: K562
KM-20L2 = tested on: KM-20L2
KM12 = tested on: KM12
LOX IMVI = tested on: LOX IMVI
LXFL 529 = tested on: LXFL 529
M14 = tested on: M14
M19-MEL = tested on: M19-MEL
MOLT-4 = tested on: MOLT-4
Malme-3M = tested on: Malme-3M
NCI-H460 = tested on: NCI-H460
NCI-H522 = tested on: NCI-H522
OVCAR-4 = tested on: OVCAR-4
OVCAR-5 = tested on: OVCAR-5
OVCAR-8 = tested on: OVCAR-8
RPMI-8226 = tested on: RPMI-8226
RXF 393 = tested on: RXF 393
RXF 631 = tested on: RXF 631
SF-268 = tested on: SF-268
SF-295 = tested on: SF-295
SF-539 = tested on: SF-539
SK-MEL-2 = tested on: SK-MEL-2
SK-MEL-5 = tested on: SK-MEL-5
SK-OV-3 = tested on: SK-OV-3
SN12C = tested on: SN12C
SNB-19 = tested on: SNB-19
SNB-75 = tested on: SNB-75
SNB-78 = tested on: SNB-78
SR = tested on: SR
SW-620 = tested on: SW-620
TK-10 = tested on: TK-10
U-251 = tested on: U-251
UACC-257 = tested on: UACC-257
UACC-62 = tested on: UACC-62
UO-31 = tested on: UO-31
EKVX = tested on: EKVX
NCI-H23 = tested on: NCI-H23
OVCAR-3 = tested on: OVCAR-3
SK-MEL-28 = tested on: SK-MEL-28
XF498 = tested on: XF498

CC1(C)CC(=O)c2c(oc3cc(O)c(O)cc23)C1
GI50 (786-0): 26.3 µM (inactive)
GI50 (A498): 39 µM (inactive)
GI50 (A549): 38 µM (inactive)
GI50 (ACHN): 31.3 µM (inactive)
GI50 (CAKI-1): 25.8 µM (inactive)
GI50 (CCRF-CEM): 9.84 µM (inactive)
GI50 (COLO 205): 36.6 µM (inactive)
GI50 (DLD-1): 22.9 µM (inactive)
GI50 (DMS-114): 13.2 µM (inactive)
GI50 (DMS-273): 28.6 µM (inactive)
GI50 (HCC 2998): 59.4 µM (inactive)
GI50 (HCT-116): > 10 µM (inactive)
GI50 (HCT-15): 25.4 µM
GI50 (HL-60): 16 µM (inactive)
GI50 (HOP-18): 40.1 µM (inactive)
GI50 (HOP-62): 41.4 µM (inactive)
GI50 (HOP-92): 36.3 µM (inactive)
GI50 (HT-29): 53 µM (inactive)
GI50 (IGROV-1): 40.2 µM (inactive)
GI50 (K562): 24.7 µM (inactive)
GI50 (KM-20L2): 33.7 µM (inactive)
GI50 (KM12): 23.9 µM (inactive)
GI50 (LOX IMVI): 17.1 µM (inactive)
GI50 (LXFL 529): 24.7 µM (inactive)
GI50 (M14): 24.2 µM (inactive)
GI50 (M19-MEL): 35.3 µM (inactive)
GI50 (MOLT-4): 21.3 µM (inactive)
GI50 (Malme-3M): 32.7 µM (inactive)
GI50 (NCI-H460): 32 µM (inactive)
GI50 (NCI-H522): 11.5 µM (inactive)
GI50 (OVCAR-4): 19.5 µM (inactive)
GI50 (OVCAR-5): 15.5 µM (inactive)
GI50 (OVCAR-8): 19.2 µM (inactive)
GI50 (RPMI-8226): 17.5 µM (inactive)
GI50 (RXF 393): 29.4 µM (inactive)
GI50 (RXF 631): 26.3 µM (inactive)
GI50 (SF-268): 24.3 µM (inactive)
GI50 (SF-295): 43.3 µM (inactive)
GI50 (SF-539): 28.6 µM (inactive)
GI50 (SK-MEL-2): 26.7 µM (inactive)
GI50 (SK-MEL-5): 17.7 µM (inactive)
GI50 (SK-OV-3): > 100 µM (inactive)
GI50 (SN12C): 39.5 µM (inactive)
GI50 (SNB-19): 82.2 µM (inactive)
GI50 (SNB-75): 32.8 µM (inactive)
GI50 (SNB-78): 46.9 µM (inactive)
GI50 (SR): 18.8 µM (inactive)
GI50 (SW-620): 19.1 µM (inactive)
GI50 (TK-10): > 100 µM (inactive)
GI50 (U-251): 33 µM (inactive)
GI50 (UACC-257): 30.5 µM (inactive)
GI50 (UACC-62): 17.3 µM (inactive)
GI50 (UO-31): 37.7 µM (inactive)

CCOC(=O)/C(C#N)=C/c1[nH]c(C(=O)OCc2ccccc2)c(C)c1C
GI50 (786-0): > 100 µM (inactive)
GI50 (A549): > 100 µM (inactive)
GI50 (ACHN): > 100 µM (inactive)
GI50 (CAKI-1): > 100 µM (inactive)
GI50 (CCRF-CEM): > 100 µM (inactive)
GI50 (COLO 205): > 100 µM (inactive)
GI50 (DLD-1): > 100 µM (inactive)
GI50 (DMS-114): > 100 µM (inactive)
GI50 (DMS-273): > 100 µM (inactive)
GI50 (EKVX): > 100 µM (inactive)
GI50 (HCC 2998): > 100 µM (inactive)
GI50 (HCT-15): > 100 µM
GI50 (HL-60): > 100 µM (inactive)
GI50 (HOP-18): > 100 µM (inactive)
GI50 (HOP-62): > 100 µM (inactive)
GI50 (HOP-92): 78.9 µM (inactive)
GI50 (HT-29): > 100 µM (inactive)
GI50 (IGROV-1): > 100 µM (inactive)
GI50 (K562): > 100 µM (inactive)
GI50 (KM-20L2): > 100 µM (inactive)
GI50 (KM12): > 100 µM (inactive)
GI50 (LOX IMVI): > 100 µM (inactive)
GI50 (LXFL 529): > 100 µM (inactive)
GI50 (M14): > 100 µM (inactive)
GI50 (M19-MEL): > 100 µM (inactive)
GI50 (MOLT-4): > 100 µM (inactive)
GI50 (Malme-3M): > 100 µM (inactive)
GI50 (NCI-H23): > 100 µM (inactive)
GI50 (NCI-H460): > 100 µM (inactive)
GI50 (NCI-H522): > 100 µM (inactive)
GI50 (OVCAR-3): > 100 µM (inactive)
GI50 (OVCAR-4): > 100 µM (inactive)
GI50 (OVCAR-5): > 100 µM (inactive)
GI50 (OVCAR-8): > 100 µM (inactive)
GI50 (RPMI-8226): > 100 µM (inactive)
GI50 (RXF 393): > 100 µM (inactive)
GI50 (RXF 631): > 100 µM (inactive)
GI50 (SF-268): > 100 µM (inactive)
GI50 (SF-295): > 100 µM (inactive)
GI50 (SF-539): > 100 µM (inactive)
GI50 (SK-MEL-28): > 100 µM (inactive)
GI50 (SK-MEL-2): > 100 µM (inactive)
GI50 (SK-MEL-5): 30.3 µM (inactive)
GI50 (SK-OV-3): > 100 µM (inactive)
GI50 (SN12C): > 100 µM (inactive)
GI50 (SNB-19): > 100 µM (inactive)
GI50 (SNB-75): > 100 µM (inactive)
GI50 (SW-620): > 100 µM (inactive)
GI50 (TK-10): > 100 µM (inactive)
GI50 (U-251): > 100 µM (inactive)
GI50 (UACC-257): > 100 µM (inactive)
GI50 (UACC-62): > 100 µM (inactive)
GI50 (UO-31): > 100 µM (inactive)

C[C@@H]1[C@H](c2ccccc2)O[B-]2(c3ccc(Br)cc3)OC(=O)C[N+]12C (stereo partly specified)
GI50 (786-0): > 100 µM (inactive)
GI50 (A498): > 100 µM (inactive)
GI50 (A549): > 100 µM (inactive)
GI50 (ACHN): 86.9 µM (inactive)
GI50 (CAKI-1): 53.3 µM (inactive)
GI50 (CCRF-CEM): > 100 µM (inactive)
GI50 (COLO 205): > 100 µM (inactive)
GI50 (DLD-1): > 100 µM (inactive)
GI50 (DMS-114): > 100 µM (inactive)
GI50 (EKVX): > 100 µM (inactive)
GI50 (HCC 2998): > 100 µM (inactive)
GI50 (HCT-116): > 100 µM (inactive)
GI50 (HCT-15): > 100 µM
GI50 (HL-60): 24.9 µM (inactive)
GI50 (HOP-18): > 100 µM (inactive)
GI50 (HOP-62): > 100 µM (inactive)
GI50 (HOP-92): 44.3 µM (inactive)
GI50 (HT-29): > 100 µM (inactive)
GI50 (IGROV-1): > 100 µM (inactive)
GI50 (K562): 98.9 µM (inactive)
GI50 (KM-20L2): > 100 µM (inactive)
GI50 (KM12): > 100 µM (inactive)
GI50 (LOX IMVI): > 100 µM (inactive)
GI50 (LXFL 529): 86.5 µM (inactive)
GI50 (M14): > 100 µM (inactive)
GI50 (M19-MEL): > 100 µM (inactive)
GI50 (MOLT-4): 86.5 µM (inactive)
GI50 (Malme-3M): > 100 µM (inactive)
GI50 (NCI-H23): > 100 µM (inactive)
GI50 (NCI-H460): > 100 µM (inactive)
GI50 (NCI-H522): > 100 µM (inactive)
GI50 (OVCAR-4): > 100 µM (inactive)
GI50 (OVCAR-5): > 100 µM (inactive)
GI50 (OVCAR-8): > 100 µM (inactive)
GI50 (RPMI-8226): > 100 µM (inactive)
GI50 (RXF 393): 26.5 µM (inactive)
GI50 (RXF 631): > 100 µM (inactive)
GI50 (SF-268): 94.2 µM (inactive)
GI50 (SF-295): > 100 µM (inactive)
GI50 (SF-539): > 100 µM (inactive)
GI50 (SK-MEL-28): 0.1 µM (active)
GI50 (SK-MEL-2): > 100 µM (inactive)
GI50 (SK-MEL-5): > 100 µM (inactive)
GI50 (SK-OV-3): > 100 µM (inactive)
GI50 (SN12C): > 100 µM (inactive)
GI50 (SNB-19): > 100 µM (inactive)
GI50 (SNB-75): 5.3 µM (inactive)
GI50 (SNB-78): 35.4 µM (inactive)
GI50 (SR): > 100 µM (inactive)
GI50 (SW-620): > 100 µM (inactive)
GI50 (U-251): > 100 µM (inactive)
GI50 (UACC-257): > 100 µM (inactive)
GI50 (UACC-62): > 100 µM (inactive)
GI50 (UO-31): 66.5 µM (inactive)
GI50 (XF498): 97.1 µM (inactive)
